Assay results taken from PubChem BioAssay (NCI).
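Here, GI50 denotes the concentration required for 50% inhibition of growth. The concentration for full growth arrest is given as TGI.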

Experiments:
Assay in all cases: NCI-60 cell line screen, 384-well format
786-0 renal = test system: 786-0 renal
A498 renal = test system: A498 renal
A549 NSCLC = test system: A549 NSCLC
ACHN renal = test system: ACHN renal
BT-549 breast = test system: BT-549 breast
CAKI-1 renal = test system: CAKI-1 renal
COLO 205 colon = test system: COLO 205 colon
DU-145 prostate = test system: DU-145 prostate
EKVX NSCLC = test system: EKVX NSCLC
HCC-2998 colon = test system: HCC-2998 colon
HCT-116 colon = test system: HCT-116 colon
HCT-15 colon = test system: HCT-15 colon
HL-60(TB) leukemia = test system: HL-60(TB) leukemia
HOP-62 NSCLC = test system: HOP-62 NSCLC
HOP-92 NSCLC = test system: HOP-92 NSCLC
HS 578T breast = test system: HS 578T breast
HT29 colon = test system: HT29 colon
IGROV1 ovarian = test system: IGROV1 ovarian
K-562 leukemia = test system: K-562 leukemia
KM12 colon = test system: KM12 colon
LOX IMVI melanoma = test system: LOX IMVI melanoma
M14 melanoma = test system: M14 melanoma
MALME-3M melanoma = test system: MALME-3M melanoma
MCF7 breast = test system: MCF7 breast
MDA-MB-231 breast = test system: MDA-MB-231 breast
MDA-MB-435 melanoma = test system: MDA-MB-435 melanoma
MOLT-4 leukemia = test system: MOLT-4 leukemia
NCI-H226 lung = test system: NCI-H226 lung

SMILES: CO[C@@H](C(=O)N1Cc2[nH]nc(NC(=O)c3ccc(N4CCN(C)CC4)cc3)c2C1)c1ccccc1
- GI50 ([…]-0 renal): 2530 nM
- TGI (786-0 renal): 15100 nM
- GI50 (A498 renal): 1230 nM
- TGI (A498 renal): 25600 nM
- GI50 (A549 NSCLC): 442 nM
- TGI (A549 NSCLC): 15500 nM
- GI50 (ACHN renal): 2410 nM
- TGI (ACHN renal): 18600 nM
- GI50 (BT-549 breast): 270 nM
- TGI (BT-549 breast): 1470 nM
- GI50 (CAKI-1 renal): 1210 nM
- TGI (CAKI-1 renal): 9850 nM
- GI50 (COLO 205 colon): 24.4 nM
- TGI (COLO 205 colon): 63.9 nM
- GI50 (DU-145 prostate): 451 nM
- TGI (DU-145 prostate): 24400 nM
- GI50 (EKVX NSCLC): 1050 nM
- TGI (EKVX NSCLC): 15800 nM
- GI50 (HCC-2998 colon): 12700 nM
- TGI (HCC-2998 colon): 30300 nM
- GI50 (HCT-116 colon): 120 nM
- TGI (HCT-116 colon): 25200 nM
- GI50 (HCT-15 colon): 14700 nM
- TGI (HCT-15 colon): > 100000 nM
- GI50 (HL-60(TB) leukemia): 46.6 nM
- TGI (HL-60(TB) leukemia): 1510 nM
- GI50 (HOP-62 NSCLC): 676 nM
- TGI (HOP-62 NSCLC): 10500 nM
- TGI (HOP-92 NSCLC): 2800 nM
- GI50 (HS 578T breast): 1100 nM
- TGI (HS 578T breast): 2440 nM
- GI50 (HT29 colon): 4960 nM
- TGI (HT29 colon): > 100000 nM
- GI50 (IGROV1 ovarian): 547 nM
- TGI (IGROV1 ovarian): 2790 nM
- GI50 (K-562 leukemia): 32.6 nM
- TGI (K-562 leukemia): 167 nM
- GI50 (KM12 colon): 175 nM
- TGI (KM12 colon): 10900 nM
- GI50 (LOX IMVI melanoma): 330 nM
- TGI (LOX IMVI melanoma): 1690 nM
- GI50 (M14 melanoma): 9890 nM
- TGI (M14 melanoma): 26300 nM
- GI50 (MALME-3M melanoma): 642 nM
- TGI (MALME-3M melanoma): 15200 nM
- GI50 (MCF7 breast): 37.1 nM
- TGI (MCF7 breast): 13700 nM
- GI50 (MDA-MB-231 breast): 2360 nM
- TGI (MDA-MB-231 breast): > 100000 nM
- GI50 (MDA-MB-435 melanoma): 16900 nM
- TGI (MDA-MB-435 melanoma): 32900 nM
- GI50 (MOLT-4 leukemia): 18.9 nM
- TGI (MOLT-4 leukemia): 44.5 nM
- GI50 (NCI-H226 lung): 623 nM
- TGI (NCI-H226 lung): 4910 nM
